Assay results taken from the NIST ThermoML archive (doi:10.1021/je8009545).
Numbers after ± are expanded uncertainties.

Details: Gas; for mass density: Gas pipette; for viscosity: Oscillating disk viscometry

COC [dimethyl ether]
Details	mass density [kg/m3]	viscosity [mPa·s]
298.15 K, 101 kPa	1.91 ± 0.12	0.00922 ± 0.00037
298.15 K, 296 kPa	6.081 ± 0.37	0.00918 ± 0.00037
298.15 K, 475 kPa	10.06 ± 0.6	0.0091 ± 0.00037
323.15 K, 101 kPa	1.652 ± 0.1	0.00997 ± 0.00039
323.15 K, 295 kPa	5.561 ± 0.33	0.00996 ± 0.00039
323.15 K, 490 kPa	9.31 ± 0.56	0.00993 ± 0.00039
323.15 K, 736 kPa	14.71 ± 0.88	0.00995 ± 0.00039
323.15 K, 976 kPa	22.53 ± 1.4	0.00994 ± 0.00039
348.15 K, 101 kPa	1.332 ± 0.082	0.01081 ± 0.00041
348.15 K, 305 kPa	5.17 ± 0.31	0.01081 ± 0.00041
348.15 K, 551 kPa	9.705 ± 0.58	0.01082 ± 0.00041
348.15 K, 1006 kPa	19.03 ± 1.1	0.01085 ± 0.00041
348.15 K, 1561 kPa	35.81 ± 2.1	0.01094 ± 0.00041
348.15 K, 1850 kPa	44.66 ± 2.7	0.01106 ± 0.00041
373.15 K, 101 kPa	1.235 ± 0.076	0.01161 ± 0.00042
373.15 K, 305 kPa	4.748 ± 0.28	0.0116 ± 0.00042
373.15 K, 500 kPa	7.787 ± 0.47	0.01162 ± 0.00042
373.15 K, 1028 kPa	16.71 ± 1	0.01168 ± 0.00043
373.15 K, 1940 kPa	35.33 ± 2.1	0.01191 ± 0.00043
373.15 K, 2505 kPa	51.25 ± 3.1	0.01219 ± 0.00044
373.15 K, 2875 kPa	67.49 ± 4	0.01247 ± 0.00044
373.15 K, 3049 kPa	74.07 ± 4.4	0.01261 ± 0.00045
398.15 K, 101 kPa	0.948 ± 0.059	0.01234 ± 0.00044
398.15 K, 300 kPa	4.392 ± 0.26	0.01237 ± 0.00044
398.15 K, 531 kPa	7.678 ± 0.46	0.01239 ± 0.00044
398.15 K, 992 kPa	15.1 ± 0.91	0.01244 ± 0.00044
398.15 K, 2085 kPa	34.47 ± 2.1	0.01274 ± 0.00045
398.15 K, 2985 kPa	54.66 ± 3.3	0.01317 ± 0.00046
398.15 K, 3965 kPa	87.68 ± 5.3	0.0141 ± 0.00048
398.15 K, 4480 kPa	112.3 ± 6.7	0.01504 ± 0.0005
398.15 K, 4620 kPa	122.4 ± 7.3	0.01543 ± 0.00051
423.15 K, 101 kPa	1.009 ± 0.063	0.01332 ± 0.00046
423.15 K, 310 kPa	4.289 ± 0.26	0.01333 ± 0.00046
423.15 K, 505 kPa	6.812 ± 0.41	0.01335 ± 0.00047
423.15 K, 985 kPa	13.75 ± 0.83	0.01342 ± 0.00047
423.15 K, 2022 kPa	30.21 ± 1.8	0.0137 ± 0.00047
423.15 K, 3004 kPa	48.47 ± 2.9	0.01413 ± 0.00048
423.15 K, 4015 kPa	71.3 ± 4.3	0.01477 ± 0.0005
423.15 K, 4495 kPa	86.57 ± 5.2	0.01521 ± 0.00051
423.15 K, 4912 kPa	99.15 ± 6	0.01568 ± 0.00052
